These results are taken from patent US11299485B2, “Thiophene derivative and use thereof” (FUJIMOTO CO., LTD., priority 2018, dated 2022).

What all share (format): cell-based
In one data set the test system is Pfeiffer cells. Description: Human diffuse large B-cell lymphoma cell line Pfeiffer proliferation suppression test. To be noted: 144 h, compound 10 μM, 3 days + re-plating with compound 3 days, WST-8, read-out: cell survival rate (% of control) Pfeiffer. An excerpt:
Example 52: Human Diffuse Large B-Cell Lymphoma Cell Line Pfeiffer Proliferation Suppression Test
Pfeiffer cells (ATCC, CRL-2632) were suspended in medium B, and diluted as appropriate with 0.4% trypan blue solution (Sigma-Aldrich Co. LLC.). The number of viable cells was counted with a hemocytometer (Funakoshi Co., Ltd.). A cell suspension obtained by diluting with medium B such that the value obtained was 1.3×10^5 cells/mL was dispensed into a Falcon 96 well flat bottom plate (Corning Incorporated) at 75 μL/well, and culture was started at 37° C. under 5% CO2 stream. The next day, a solution obtained by diluting 4 mM DMSO solution of the test compound 100-fold with medium B was added by 25 μL to each well (final concentration of test compound 10 μM). 25 μL of a solution obtained by diluting DMSO 100-fold with medium B was added to the control well. After culturing at 37° C. in a 5% CO2 stream for 3 days, the cell culture medium was uniformly suspended with a multi channel pipette, 14 μL per well was transferred into another new Falcon 96 well flat bottom plate. A solution obtained by diluting 4 mM DMSO solution of the same test compound as the first time 400-fold with medium B was added by 86 μL to a total amount of 100 μL (final concentration of test compound 10 μM). After culturing at 37° C. in a 5% CO2 stream for 3 days, the cell proliferation activity was measured according to the instruction manual attached to WST-8 Kit (KISHIDA CHEMICAL Co., Ltd.).
Background: Formazan colour is commonly taken as a measure of viable cells.

Another data set relates to Kasumi-7 cells. Description: Human acute lymphoblastic leukemia cell line Kasumi-7 proliferation suppression test. Conditions: 72 h, compound 10 μM, 3 days, WST-8, read-out: cell survival rate (% of control) Kasumi-7. An excerpt: Example 55: Human Acute Lymphoblastic Leukemia Cell Line Kasumi-7 Proliferation Suppression Test
Kasumi-7 cells (NIBIOHN, JCRB1401) were suspended in 20% fetal calf serum (Thermo Fisher Scientific, Inc.)-containing RPMI1640 medium (ATCC, hereinafter abbreviated as medium C), and diluted as appropriate with 0.4% trypan blue solution (Sigma-Aldrich Co. LLC.). The number of viable cells was counted with a hemocytometer (Funakoshi Co., Ltd.). A cell suspension obtained by diluting with medium C such that the value obtained was 1.3×10^5 cells/mL was dispensed into a Falcon 96 well flat bottom plate (Corning Incorporated) at 75 μL/well, and culture was started at 37° C. under 5% CO2 stream. The next day, a solution obtained by diluting 4 mM DMSO solution of the test compound 100-fold with medium C was added by 25 μL to each well (final concentration of test compound 10 μM). 25 μL of a solution obtained by diluting DMSO 100-fold with medium C was added to the control well. After culturing at 37° C. in a 5% CO2 stream for 3 days, the cell proliferation activity was measured according to the instruction manual attached to WST-8 Kit (KISHIDA CHEMICAL Co., Ltd.).

In data set [1] the test system is human peripheral blood mononuclear cells (PBMC). The data set can be described thus: Cytotoxicity test using human peripheral blood mononuclear cells (PBMC). To be noted: compound 10 μg/mL, LPS, 24 hr, WST-1 or WST-8. As for the experimental part: Example 56: Cytotoxicity Test Using Human Peripheral Blood Mononuclear Cells (PBMC)
Peripheral blood of a healthy adult was collected in a Venoject II vacuum blood collection tube (Terumo, containing EDTA/2Na), and then diluted two-fold with an equal volume of OTSUKA NORMAL SALINE (Otsuka Pharmaceutical Co., Ltd.). The diluted blood was mixed with Lymphoprep (AXIS-SHIELD) in half the volume of the diluted blood, dispensed into a 15 mL conical tube, and centrifuged at room temperature for 20 min (2,100 rpm). The mononuclear cells accumulated at the interface between Lymphoprep and plasma was transferred to a 50 mL conical tube, diluted with OTSUKA NORMAL SALINE, and the mononuclear cells suspension was centrifuged at room temperature for 10 min (1,150 rpm) and then the supernatant was removed. The mononuclear cells fraction obtained as a precipitate was suspended in an appropriate amount of medium A, and diluted as appropriate with 0.4% trypan blue solution (Sigma-Aldrich Co. LLC.). The number of viable cells was counted with a hemocytometer (ERMA INC.). It was diluted with medium A such that the value obtained was 5×10^5 cells/mL. On the other hand, 37.5 μL of medium A, 2.5 μL of 0.4 mg/mL test compound solution (DMSO solution 10-fold diluted with medium A), and 10 μL of 10 μg/mL lipopolysaccharide (Sigma-Aldrich Co. LLC.) solution (diluted with medium A) were each added in advance to the same well of a Falcon 96-well flat bottom plate (Corning Incorporated), and the above-mentioned cell suspension was dispensed at 50 μL/well (final concentration of test compound 10 μg/mL). 2.5 μL of DMSO diluted 10-fold with medium A was added to the control well instead of the compound solution. After culturing at 37° C. in a 5% CO2 stream for 24 hr, the cell survival rate was measured using WST-1 (DOJINDO LABORATORIES) or WST-8 kit (KISHIDA CHEMICAL Co., Ltd.) and according to each instruction manual attached thereto.

Another data set relates to MM.1S cells. The data set can be described thus: Human myeloma cell line MM.1S proliferation suppression test. To be noted: MM1.S, 72 h, compound 10 μM, 3 days, WST-1 or WST-8, read-out: cell survival rate (% of control) MM.1S. How it is done: Example 51: Human Myeloma Cell Line MM.1S Proliferation Suppression Test
MM.1S cells (ATCC, CRL-2974) were suspended in 10% fetal calf serum (Thermo Fisher Scientific)-containing RPMI1640 medium (ATCC, hereinafter abbreviated as medium B), and diluted as appropriate with 0.4% trypan blue solution (Sigma-Aldrich Co. LLC.). The number of viable cells was counted with a hemocytometer (ERMA INC.). It was diluted with medium B such that the value obtained was 2×10^5 cells/mL. On the other hand, 50 μL of a solution obtained by diluting 4 mM DMSO solution of the test compound 200-fold with medium B was added to each well of a Falcon 96-well flat bottom plate (Corning Incorporated), and the above-mentioned cell suspension was dispensed at 50 μL/well (final concentration of test compound 10 μM). 50 μL of a solution obtained by diluting DMSO 200-fold with medium B was added to the control well. After culturing at 37° C. in a 5% CO2 stream for 3 days, the cell proliferation activity was measured using WST-1 (DOJINDO LABORATORIES) or WST-8 Kit (KISHIDA CHEMICAL Co., Ltd.) and according to each instruction manual attached thereto.

As for `O=C1CCC(n2cc(-c3cc(Br)sc3Br)nn2)C(=O)N1` (centres unmarked) [compound 13, 3-[4-(2,5-dibromothiophen-3-yl)-1H-1,2,3-triazol-1-yl]piperidine-2,6-dione], the results for the viability at 10 µM with Pfeiffer cells, in the data set with Kasumi-7 cells and in the data set with MM.1S cells were 100%, 93% and 79%, respectively. Besides, the “cell survival rate (% of control) PBMC” value in data set [1] was 132 % of control.

`O=C1CCC(n2cc(-c3cscc3OCC3CCCC3)nn2)C(=O)N1` (centres unmarked) [compound 29, 3-{4-[4-(cyclopentylmethoxy)thiophen-3-yl]-1H-1,2,3-triazol-1-yl}piperidine-2,6-dione]: the results for the viability at 10 µM in the data set with Pfeiffer cells, in the data set on Kasumi-7 cells and with MM.1S cells were 110%, 84% and 89%, respectively. Moreover, the “cell survival rate (% of control) PBMC” value in data set [1] is 104 % of control.

Consider `C[C@@H]1CN(Cc2ccc(COc3cscc3-c3cn(C4CCC(=O)NC4=O)nn3)cc2)C[C@H](C)O1` (stereo partly drawn) [compound 38, 3-{4-[4-(4-{[(2S,6R)-2,6-dimethylmorpholino]methyl}benzyloxy)thiophen-3-yl]-1H-1,2,3-triazol-1-yl}piperidine-2,6-dione], for which the viability at 10 µM was found to be 29% with Pfeiffer cells, 23% in the data set with Kasumi-7 cells and 24% in the data set on MM.1S cells. Further, the “cell survival rate (% of control) PBMC” value in data set [1] is 110 % of control.

Regarding `O=C1CCC(n2cc(-c3ccc(Cl)s3)nn2)C(=O)N1` (centres unmarked) [compound 11, 3-[4-(5-chlorothiophen-2-yl)-1H-1,2,3-triazol-1-yl]piperidine-2,6-dione], the figures for the viability at 10 µM in the data set on Pfeiffer cells, with Kasumi-7 cells and with MM.1S cells were 114%, 78% and 63%, respectively. In data set [1], the “cell survival rate (% of control) PBMC” value was 115 % of control.

As to `O=C1CCC(n2cc(-c3cscc3OCc3cc4ccccc4s3)nn2)C(=O)N1` (centres unmarked) [compound 47, 3-{4-[4-(benzo[b]thiophen-2-ylmethoxy)thiophen-3-yl]-1H-1,2,3-triazol-1-yl}piperidine-2,6-dione], the viability at 10 µM with Pfeiffer cells came to 99%; with Kasumi-7 cells, 56%; with MM.1S cells it was 64%. For the same molecule, the “cell survival rate (% of control) PBMC” value in data set [1] is listed as 106 % of control.

Take `O=C1CCC(n2cc(-c3cscc3OCc3ccc(Cl)cc3)nn2)C(=O)N1` (centres unmarked) [compound 43, 3-{4-[4-(4-chlorobenzyloxy)thiophen-3-yl]-1H-1,2,3-triazol-1-yl}piperidine-2,6-dione]: the results for the viability at 10 µM in the data set with Pfeiffer cells, in the data set with Kasumi-7 cells and in the data set with MM.1S cells were 89%, 42% and 30%, respectively. In data set [1], the “cell survival rate (% of control) PBMC” value is on record as 98 % of control.

As to `O=C1CCC(n2cc(-c3cscc3OCc3ccc(CN4CCOCC4)cc3)nn2)C(=O)N1` (centres unmarked) [compound 36, 3-(4-{4-[4-(morpholinomethyl)benzyloxy]thiophen-3-yl}-1H-1,2,3-triazol-1-yl)piperidine-2,6-dione], the viability at 10 µM in the data set with Pfeiffer cells amounted to 34%; in the data set with Kasumi-7 cells, 19%; in the data set on MM.1S cells it was 16%. For the same molecule, the “cell survival rate (% of control) PBMC” value in data set [1] is recorded as 59 % of control.

On to `COc1c(-c2cn(C3CCC(=O)NC3=O)nn2)csc1Br` (centres unmarked) [compound 23, 3-[4-(5-bromo-4-methoxythiophen-3-yl)-1H-1,2,3-triazol-1-yl]piperidine-2,6-dione], for which the viability at 10 µM is 97% in the data set on Pfeiffer cells, 76% in the data set on Kasumi-7 cells and 75% with MM.1S cells. Besides, the “cell survival rate (% of control) PBMC” value in data set [1] is on record as 104 % of control.

With `Cc1ccc(-c2cn(C3CCC(=O)NC3=O)nn2)s1` (centres unmarked) [compound 5, 3-[4-(5-methylthiophen-2-yl)-1H-1,2,3-triazol-1-yl]piperidine-2,6-dione], the figures for the viability at 10 µM with Pfeiffer cells, in the data set on Kasumi-7 cells and in the data set on MM.1S cells were 98%, 72% and 66%, respectively. The “cell survival rate (% of control) PBMC” value in data set [1] is 97 % of control.

For `Cl.O=C1CCC(n2cc(-c3cscc3OCc3ccc(CCN4CCOCC4)cc3)nn2)C(=O)N1` (centres unmarked) [compound 45, 3-(4-{4-[4-(2-morpholinoethyl)benzyloxy]thiophen-3-yl}-1H-1,2,3-triazol-1-yl)piperidine-2,6-dione hydrochloride], the viability at 10 µM came to 78% in the data set on Pfeiffer cells, 39% in the data set with Kasumi-7 cells and 31% in the data set with MM.1S cells. Also, in data set [1], the “cell survival rate (% of control) PBMC” value was 110 % of control.

As for `O=C1CCC(n2nnc(-c3ccsc3)c2Br)C(=O)N1` (centres unmarked) [compound 48, 3-[5-bromo-4-(thiophen-3-yl)-1H-1,2,3-triazol-1-yl]piperidine-2,6-dione], the results for the viability at 10 µM with Pfeiffer cells, in the data set on Kasumi-7 cells and in the data set on MM.1S cells were 98%, 95% and 85%, respectively. Further, the “cell survival rate (% of control) PBMC” value in data set [1] is reported as 138 % of control.

On to `CCOc1cscc1-c1cn(C2CCC(=O)NC2=O)nn1` (centres unmarked) [compound 17, 3-[4-(4-ethoxythiophen-3-yl)-1H-1,2,3-triazol-1-yl]piperidine-2,6-dione], for which the results for the viability at 10 µM in the data set with Pfeiffer cells, with Kasumi-7 cells and with MM.1S cells were 72%, 48% and 32%, respectively. In addition, the “cell survival rate (% of control) PBMC” value in data set [1] is recorded as 49 % of control.

Take `CC(Oc1cscc1-c1cn(C2CCC(=O)NC2=O)nn1)c1ccccc1` (centres unmarked) [compound 44, 3-{4-[4-(1-phenylethoxy)thiophen-3-yl]-1H-1,2,3-triazol-1-yl}piperidine-2,6-dione]: the viability at 10 µM with Pfeiffer cells is 94%; in the data set with Kasumi-7 cells it was 40%; in the data set with MM.1S cells it was 33%. The “cell survival rate (% of control) PBMC” value in data set [1] is listed as 105 % of control.

With `COc1c(-c2cn(C3CCC(=O)NC3=O)nn2)csc1Cl` (centres unmarked) [compound 22, 3-[4-(5-chloro-4-methoxythiophen-3-yl)-1H-1,2,3-triazol-1-yl]piperidine-2,6-dione], the viability at 10 µM turned out to be 97% in the data set on Pfeiffer cells, 82% with Kasumi-7 cells and 73% with MM.1S cells. Also, the “cell survival rate (% of control) PBMC” value in data set [1] is reported as 132 % of control.
